These are literature values, as cited in patent US8110226B2, “Drug formulations having inert sealed cores” (Mylan Pharmaceuticals Inc., priority 2007, dated 2012).

For the data set the following is noted: first pKa of non-polymeric pH modifying acid.

With `CC(O)C(=O)O` (stereo not shown) [Lactic Acid], the pKa (in general, the pH at which an ionisable group is half protonated) was 4.14.
